Assay results from patent US10889565B2, “4-hydroxy-3-sulfonylpyridin-2(1H)-ones as APJ receptor agonists” (BRISTOL-MYERS SQUIBB COMPANY, priority 2016, dated 2021).
pEC50: −log10 of the molar value.

Molecular target: T1, human APJ receptor (Homo sapiens, UniProt P35414)
T1 construct: expressed in transfected cells
T1 sequence (P35414 1-380): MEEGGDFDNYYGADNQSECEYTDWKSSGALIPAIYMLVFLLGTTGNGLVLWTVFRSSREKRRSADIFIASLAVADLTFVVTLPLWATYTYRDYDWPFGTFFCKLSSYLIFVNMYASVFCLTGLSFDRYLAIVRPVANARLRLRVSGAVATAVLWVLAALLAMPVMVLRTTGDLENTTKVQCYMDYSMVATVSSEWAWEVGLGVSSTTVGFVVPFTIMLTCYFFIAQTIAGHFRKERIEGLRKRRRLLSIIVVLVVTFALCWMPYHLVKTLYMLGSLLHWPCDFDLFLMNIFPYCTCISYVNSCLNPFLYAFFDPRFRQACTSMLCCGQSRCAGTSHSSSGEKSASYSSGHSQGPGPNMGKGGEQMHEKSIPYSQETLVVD
Experiment: Intracellular cAMP accumulation assay (APJ hcAMP, HTRF)
Assay type: cell-based
Details: HEK293 cells stably expressing human APJ receptor; inhibition of forskolin-mediated cAMP production; read-out: Human APJ cAMP EC50 Potency range
Experimental: Intracellular cAMP Accumulation Assay
HEK293 cells stably expressing human APJ receptor were used to assess the activity of compounds. Cultured cells were detached and resuspended in the cAMP Homogeneous Time-Resolved Fluorescence (HTRF) assay buffer (Cisbio cat; #62AM4PEJ). The assay was performed in 384-well assay plates (Perkin-Elmer; cat #6008289) according to assay protocol provided by the manufacturer. Serial dilutions of a compound together with assay buffer containing […] IBMX and 2 μM forskolin were added to each well containing 5,000 cells and incubated for 30 minutes at room temperature. Subsequently, cAMP D2 reagent was added in the lysis buffer followed by the EuK antibody (Cisbio; cat #62AM4PEJ) and incubated for 60 min. The fluorescence emission ratio was measured using fluorometer. The intracellular cAMP concentrations (compound-stimulated inhibition of forskolin-mediated cAMP production) were calculated by extrapolation from a standard curve using known cAMP concentrations. The EC50 values were obtained by fitting the data to a sigmoidal concentration-response curve with variable slope. The maximal achievable inhibition of forskolin-induced cAMP levels (Ymax) for each compound was expressed as relative percentage of inhibition attained using pyroglutamated apelin-13 ((Pyr1)apelin-13) peptide, which was set to 100%.
The examples disclosed below were tested in the APJ in vitro assays described above and were found having human APJ cyclic AMP (hcAMP) activity. The EC50 value of each compound is presented at the end of the example description.
The biological activity of the exemplified compounds of this invention determined by the assay described above is shown at the end of each example.

Row | pEC50 | Structure (SMILES)
1 | 8.00 to 11.00 | CCCCc1[nH]c(=O)c(S(=O)(=O)c2ccc(-c3ccnc(OC)c3)cn2)c(O)c1-c1c(OC)cccc1OC [Example 44, 6-butyl-5-(2,6-dimethoxy-phenyl)-4-hydroxy-3-((2′-methoxy-[3,4′-bipyridin]-6-yl)sulfonyl) pyridin-2(1H)-one]
2 | 8.00 to 11.00 | COc1cccc(OC)c1-c1c(-c2ccc(F)cc2)[nH]c(=O)c(S(=O)(=O)c2ccc(-c3ccnc(F)c3C)cc2)c1O [Example 16, 5-(2,6-dimethoxy-phenyl)-3-((4-(2-fluoro-3-methyl-pyridin-4-yl)phenyl)sulfonyl)-6-(4-fluoro-phenyl)-4-hydroxy-pyridin-2(1H)-one]
3 | 8.00 to 11.00 | CCCCc1[nH]c(=O)c(S(=O)(=O)c2ccc(-c3cccc(F)c3C)cn2)c(O)c1-c1c(OC)cccc1OC [Example 38, 6-butyl-5-(2,6-dimethoxy-phenyl)-3-((5-(3-fluoro-2-methylphenyl)pyridin-2-yl)sulfonyl)-4-hydroxy-pyridin-2(1H)-one]
4 | 8.00 to 11.00 | CCCCc1[nH]c(=O)c(S(=O)(=O)c2ccc(-c3ccnc(F)c3C)cn2)c(O)c1-c1c(OC)cccc1OC [Example 33, 6-butyl-5-(2,6-dimethoxy-phenyl)-3-((2′-fluoro-3′-methyl-[3,4′-bipyridin]-6-yl)sulfonyl)-4-hydroxy-pyridin-2(1H)-one]
5 | 8.00 to 11.00 | CCCCc1[nH]c(=O)c(S(=O)(=O)c2ccc(-c3ccc(F)nc3C)cn2)c(O)c1-c1c(OC)cccc1OC [Example 41, 6-butyl-5-(2,6-dimethoxy-phenyl)-3-((6′-fluoro-2′-methyl-[3,3′-bipyridin]-6-yl)sulfonyl)-4-hydroxypyridin-2(1H)-one]
6 | 8.00 to 11.00 | CCCCc1[nH]c(=O)c(S(=O)(=O)c2ccc(C3CC3)cn2)c(O)c1-c1c(OC)cccc1OC [Example 51, 6-Butyl-3-((5-cyclopropylpyridin-2-yl)sulfonyl)-5-(2,6-dimethoxyphenyl)-4-hydroxypyridin-2(1H)-one]
7 | 8.00 to 11.00 | CCCCc1[nH]c(=O)c(S(=O)(=O)c2ccc(-c3cccnc3OC)cc2)c(O)c1-c1c(OC)cccc1OC [Example 2, 6-butyl-5-(2,6-dimethoxy-phenyl)-4-hydroxy-3-((4-(2-methoxy-pyridin-3-yl)phenyl)sulfonyl) pyridin-2(1H)-one]
8 | 7.00 to 8.00 | CCCCc1[nH]c(=O)c(S(=O)(=O)c2nnc[nH]2)c(O)c1-c1c(OC)cccc1OC [Example 48, 3-((4H-1,2,4-triazol-3-yl)sulfonyl)-6-butyl-5-(2,6-dimethoxy-phenyl)-4-hydroxy-pyridin-2(1H)-one]
9 | 8.00 to 11.00 | CCCCc1[nH]c(=O)c(S(=O)(=O)c2ccc(Br)cn2)c(O)c1-c1c(OC)cccc1OC [Example 32, 3-((5-bromopyridin-2-yl)sulfonyl)-6-butyl-5-(2,6-dimethoxyphenyl)-4-hydroxypyridin-2(1H)-one]
10 | 8.00 to 11.00 | CCCCc1[nH]c(=O)c(S(=O)(=O)c2ccccn2)c(O)c1-c1c(OC)cccc1OC [Example 46, 6-butyl-5-(2,6-dimethoxy-phenyl)-4-hydroxy-3-(pyridin-2-ylsulfonyl) pyridin-2(1H)-one]
11 | 8.00 to 11.00 | CCCCc1[nH]c(=O)c(S(=O)(=O)c2ccc(-c3ccc(OC(F)(F)F)cc3)cn2)c(O)c1-c1c(OC)cccc1OC [Example 35, 6-butyl-5-(2,6-dimethoxy-phenyl)-4-hydroxy-3-((5-(4-(trifluoro-methoxy)phenyl)pyridin-2-yl)sulfonyl) pyridin-2(1H)-one]
12 | 8.00 to 11.00 | CCOCc1[nH]c(=O)c(S(=O)(=O)c2ccc(-n3ccccc3=O)cc2)c(O)c1-c1c(OC)cccc1OC [Example 26, 5-(2,6-dimethoxy-phenyl)-6-(ethoxymethyl)-4-hydroxy-3-((4-(2-oxopyridin-1(2H)-yl)phenyl)sulfonyl) pyridin-2(1H)-one]
13 | 8.00 to 11.00 | CCCCc1[nH]c(=O)c(S(=O)(=O)c2ccc(-c3ccncc3C)cc2)c(O)c1-c1c(OC)cccc1OC [Example 3, 6-butyl-5-(2,6-dimethoxy-phenyl)-4-hydroxy-3-((4-(3-methyl-pyridin-4-yl)phenyl)sulfonyl) pyridin-2(1H)-one]
